This is an account of results in patent EP4624471A1, “PKMYT1 INHIBITOR, PREPARATION METHOD THEREFOR, AND PHARMACEUTICAL COMPOSITION AND USE THEREOF” (Shanghai Qilu Pharmaceutical Research and Development …, priority 2022, dated 2024).

For the first test, the target named is T1, PKMYT1 enzyme (Homo sapiens, UniProt Q99640).
T1 construct: purchased Thermo Scientific A33387
T1 sequence (Q99640 1-499): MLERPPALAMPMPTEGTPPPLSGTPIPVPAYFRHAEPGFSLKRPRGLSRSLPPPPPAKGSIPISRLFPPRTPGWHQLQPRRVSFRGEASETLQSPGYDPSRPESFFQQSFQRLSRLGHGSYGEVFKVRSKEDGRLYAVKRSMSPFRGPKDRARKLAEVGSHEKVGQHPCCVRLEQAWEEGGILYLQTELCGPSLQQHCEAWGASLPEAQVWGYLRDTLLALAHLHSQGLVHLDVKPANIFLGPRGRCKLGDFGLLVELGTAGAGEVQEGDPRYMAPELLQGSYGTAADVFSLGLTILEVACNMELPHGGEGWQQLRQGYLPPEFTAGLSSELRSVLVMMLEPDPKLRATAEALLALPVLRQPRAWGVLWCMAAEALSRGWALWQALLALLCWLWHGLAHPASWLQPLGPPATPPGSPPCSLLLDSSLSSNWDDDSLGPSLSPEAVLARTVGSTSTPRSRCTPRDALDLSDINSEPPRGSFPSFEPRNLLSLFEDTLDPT
Kind of test: PKMYT1 enzyme inhibition activity, ADP-GLO method. The test is classed as biochemical. To be noted: PKMYT1 enzyme 10 nM, ATP 5 µM, 37°C 90 minutes; read-out: ADP-GLO IC50. (In general: ADP-Glo first removes unused ATP, then detects ADP through luciferase.)
Method: Enzyme inhibition activity of compounds of the present disclosure
The enzyme activity of some of the example compounds was verified using the ADP-GLO method.
PKMYT1 enzyme protein was purchased from Thermo Scientific (Cat. No.: A33387), and the ADP-GLO kit was purchased from Promega (Cat. No.: V9103).
PKMYT1 enzyme activity reaction buffer: 70 mM HEPES, 3 mM MgCl2, 3 mM MnCl2, 50 µg mL-1PEG20000, 3 µM sodium orthovanadate, 1.2 mM DTT.
The reaction plate with the added compounds was centrifuged at 2500 rpm for 1 minute.
The prepared enzyme solution was added to the reaction plate, 5 µL per well, and the final concentration of enzyme was 10 nM. The reaction plate was centrifuged at 1000 rpm for 1 minute. The reaction plate was placed in an incubator at 37°C for 15 minutes.
The prepared ATP substrate solution was added to the reaction plate, 5 µL per well, and the final concentration of ATP was 5 µM. The reaction plate was centrifuged at 1000 rpm for 1 minute. After sealing the plate with aluminum foil, the plate was placed in an incubator and the reaction was carried out at 37°C for 90 minutes.
10 µL of ADP-glo™ reagent was added to stop the kinase reaction and consume unconsumed ATP, leaving only ADP and a very low ATP background. The reaction plate was centrifuged at 1000 rpm for 1 minute. After sealing the plate with aluminum foil, the reaction was carried out at room temperature for 60 minutes.
ADP was converted to ATP by adding 20 µL of kinase detection reagent, and luciferase and luciferin were introduced to detect ATP. The reaction plate was centrifuged at 1000 rpm for 1 minute. After sealing the plate with aluminum foil, the reaction was carried out at room temperature for 60 minutes.
The ADP-GLO luminescence signal values were read by the microplate reader PHERAstar, and the readings were analyzed.
As for `Cc1cc(F)c(O)c(C)c1-n1c(N)c(C(N)=O)c2c3c(cnc21)CCC3` (racemic) [Example 186], the IC50 (as a rule, the point on the concentration scale where inhibition reaches its midpoint) was 7.41 nM.
On the same count and under the same terms, the value for `CCc1cc2c(C(N)=O)c(N)n(-c3c(C)cc(F)c(O)c3C)c2nc1C` (single isomer, unassigned) [Example 143.1] was 20 nM; that for `Cc1cc2c(C(N)=O)c(N)n(-c3c(C)c(O)c(Cl)c(F)c3C)c2nc1C` [Example 44, 2-Amino-1-(4-chloro-3-fluoro-5-hydroxy-2,6-dimethylphenyl)-5,6-dimethyl-1H-pyrrolo[2,3-b]pyridine-3-carboxamide] was 11.8 nM; that for `Cc1ccc(O)c(C)c1-n1c(N)c(C(N)=O)c2cnc(N3CCOCC3)nc21` [Example 34, 6-Amino-7-(3-hydroxy-2,6-dimethylphenyl)-2-morpholino-7H-pyrrolo[2,3-d]pyrimidine-5-carboxamide] was 25.7 nM.
The same measure, in the same setting: the value for `Cc1cc2c(C(N)=O)c(N)n(-c3c(C)c(O)cc(Cl)c3C)c2nc1C` [Example 48, 2-Amino-1-(3-chloro-5-hydroxy-2,6-dimethylphenyl)-5,6-dimethyl-1H-pyrrolo[2,3-b]nicotinamide] was 36.8 nM; that for `Cc1ccc(O)c(C)c1-n1c(N)c(C(N)=O)c2cnc(CCC3CC3)nc21` [Example 86] was 5.47 nM.
Still for that read-out and setting: the same measure for `Cc1cc(F)c(O)c(C)c1-n1c(N)c(C(N)=O)c2cc(CC(C)C)c(C)nc21` (atropisomer, axis not shown) [Example 166.2]: 3.78 nM.
As to `C=Cc1cnc2c(c1)c(C(N)=O)c(N)n2-c1c(C)cc(F)c(O)c1C` [Example 148], the IC50 was 7.32 nM.
Same read-out and setting: the same measure for `Cc1ccc(O)c(C)c1-n1c(N)c(C(N)=O)c2cnc(NCC(F)F)nc21` [Example 77]: 20.2 nM; for `CNc1ncc2c(C(N)=O)c(N)n(-c3c(C)ccc(O)c3C)c2n1` [Example 85]: 6.7 nM.
Still for that read-out and setting: the same measure for `Cc1cc(F)c(O)c(C)c1-n1c(N)c(C(N)=O)c2cc3ccccc3nc21` [Example 180]: 30.5 nM; for `Cc1cc2c(C(N)=O)c(N)n(-c3c(C)ccc(O)c3C)c2nc1N` [Example 95]: 9.47 nM; for `Cc1ccc(O)c(C)c1-n1c(N)c(C(N)=O)c2cnc(-c3ccc(F)cc3)nc21` [Example 64]: 15.7 nM.
As for `Cc1ccc(O)c(C)c1-n1c(N)c(C(N)=O)c2cnc(C3CC3)nc21` [Example 41, 6-Amino-2-cyclopropyl-7-(3-hydroxy-2,6-dimethylphenyl)-7H-pyrrolo[2,3-d]pyrimidine-5-carboxamide], the IC50 turned out to be 11.2 nM.
Take `Cc1cc(F)c(O)c(C)c1-n1c(N)c(C(N)=O)c2cc(N3CCC3)c(C)nc21` (racemic) [Example 173]: the IC50 was 7.68 nM.
The same measure, in the same setting: the same measure for `Cc1cc2c(C(N)=O)c(N)n(-c3c(C)cc(Cl)c(O)c3C)c2nc1C` [Example 43, 2-Amino-1-(4-chloro-3-hydroxy-2,6-dimethylphenyl)-5,6-dimethyl-1H-pyrrolo[2,3-b]pyridine-3-carboxamide]: 26.4 nM.
In the case of `C=C(C)c1nc2c(cc1C)c(C(N)=O)c(N)n2-c1c(C)c(O)cc(F)c1C` [Example 138], the concentration for half-maximal inhibition (IC50) was found to be 27 nM.
On the same count and under the same terms, the value for `Cc1cc(F)c(O)c(C)c1-n1c(N)c(C(N)=O)c2cc(C(F)(F)F)c(C)nc21` [Example 59, 2-Amino-1-(4-fluoro-3-hydroxy-2,6-dimethylphenyl)-6-methyl-5-(trifluoromethyl)-1H-pyrrolo[2,3-b]pyridine-3-carboxamide] was 8.67 nM.
On the same count and under the same terms, the value for `Cc1cc(F)c(O)c(C)c1-n1c(N)c(C(N)=O)c2cc(C3CCOCC3)c(C)nc21` (atropisomer, axis not shown) [Example 163] was 23.4 nM; that for `Cc1ccc(O)c(C)c1-n1c(N)c(C(N)=O)c2cnc(N3CCCC3)nc21` [Example 35, 6-Amino-7-(3-hydroxy-2,6-dimethylphenyl)-2-(pyrrolidin-1-yl)-7H-pyrrolo[2,3-d]pyrimidine-5-carboxamide] was 37.8 nM.
Still for that read-out and setting: the same measure for `COC(C)(C)c1cc2c(C(N)=O)c(N)n(-c3c(C)cc(F)c(O)c3C)c2nc1C` [Example 171]: 26.8 nM.
As for `[2H]C([2H])([2H])c1c(O)c(F)cc(C)c1-n1c(N)c(C(N)=O)c2cc(C(F)(F)F)c(C)nc21` (racemic) [Example 195], the IC50 amounted to 4.6 nM.
Turning to `Cc1ccc(O)c(C)c1-n1c(N)c(C(N)=O)c2cnc(Cl)nc21` [Example 5, 6-Amino-2-chloro-7-(3-hydroxy-2,6-dimethylphenyl)-7H-pyrrolo[2,3-d]pyrimidine-5-carboxamide], the concentration for half-maximal inhibition (IC50) came out at 8.01 nM.
The same measure, in the same setting: the value for `Cc1ccc(O)c(C)c1-n1c(N)c(C(N)=O)c2cnc(C(F)(F)F)nc21` [Example 4, 6-Amino-7-(3-hydroxy-2,6-dimethylphenyl)-2-(trifluoromethyl)-7H-pyrrolo[2,3-d]pyrimidine-5-carboxamide] was 25.4 nM; that for `Cc1ccc(O)c(C)c1-n1c(N)c(C(N)=O)c2cnc(C#CC(C)(C)F)nc21` [Example 27] was 7.15 nM.
Still for that read-out and setting: the same measure for `C=Cc1ncc2c(C(N)=O)c(N)n(-c3c(C)ccc(O)c3C)c2n1` [Example 6, 6-Amino-7-(3-hydroxy-2,6-dimethylphenyl)-2-vinyl-7H-pyrrolo[2,3-d]pyrimidine-5-carboxamide]: 10.1 nM; for `Cc1cnc2c(c1)c(C(N)=O)c(N)n2-c1c(C)c(O)cc(F)c1C` [Example 89]: 3 nM.
Regarding `Cc1c(O)cc(F)c(C)c1-n1c(N)c(C(N)=O)c2cc(N3CCOCC3)cnc21` [Example 117], the half-inhibitory concentration (IC50) came out at 192 nM.
On the same count and under the same terms, the value for `Cc1c(O)cc(F)c(C)c1-n1c(N)c(C(N)=O)c2c(C)c3c(nc21)CCC3` [Example 182] was 85.7 nM.
Same read-out and setting: the value for `Cc1cc(F)c(O)c(C)c1-n1c(N)c(C(N)=O)c2cc(C(C)(C)O)cnc21` [Example 145] was 24.3 nM; that for `Cc1ccc(O)c(C)c1-n1c(N)c(C(N)=O)c2cnc(C#CC(C)(C)O)nc21` [Example 26, 6-Amino-7-(3-hydroxy-2,6-dimethylphenyl)-2-(3-hydroxy-3-methylbut-1-yn-1-yl)-7H-pyrrolo[2,3-d]pyrimidine-5-carboxamide] was 11.3 nM.
The same measure, in the same setting: the same measure for `CC(C)=Cc1ncc2c(C(N)=O)c(N)n(-c3c(C)ccc(O)c3C)c2n1` [Example 42, 6-Amino-7-(3-hydroxy-2,6-dimethylphenyl)-2-(2-methylprop-1-en-1-yl)-7H-pyrrolo[2,3-d]pyrimidine-5-carboxamide]: 6.62 nM.
Regarding `Cc1cc(F)c(O)c(C)c1-n1c(N)c(C(N)=O)c2cc(S(C)(=O)=O)c(C)nc21` [Example 168], the IC50 amounted to 4.92 nM.
On the same count and under the same terms, the same measure for `Cc1ccc(O)c(C)c1-n1c(N)c(C(N)=O)c2cnc(N)nc21` [Example 40, 2,6-Diamino-7-(3-hydroxy-2,6-dimethylphenyl)-7H-pyrrolo[2,3-d]pyrimidine-5-carboxamide]: 23.6 nM; for `Cc1ccc(O)c(C)c1-n1c(N)c(C(N)=O)c2cc3c(nc21)OC(F)(F)O3` [Example 178]: 15.5 nM.
Still for that read-out and setting: the same measure for `Cc1ccc(O)c(C)c1-n1c(N)c(C(N)=O)c2cc3c(nc21)OCCO3` (racemic) [Example 188]: 10.5 nM.
With `CCN(CC)c1ncc2c(C(N)=O)c(N)n(-c3c(C)ccc(O)c3C)c2n1` [Example 17, 6-Amino-2-(diethylamino)-7-(3-hydroxy-2,6-dimethylphenyl)-7H-pyrrolo[2,3-d]pyrimidine-5-carboxamide], the IC50 came out at 71.5 nM.
Same read-out and setting: the value for `Cc1cc(F)c(O)c(C)c1-n1c(N)c(C(N)=O)c2cc(N(C)C)c(C)nc21` (racemic) [Example 169] was 26.2 nM; that for `Cc1cc2c(C(N)=O)c(N)n(-c3c(C)c(O)cc(F)c3C)c2nc1C` (atropisomer, axis not shown) [Example 22] was 85.5 nM.
Regarding `Cc1ccc(O)c(C)c1-n1c(N)c(C(N)=O)c2cnc(C)c(F)c21` [Example 29, 2-Amino-7-fluoro-1-(3-hydroxy-2,6-dimethylphenyl)-6-methyl-1H-pyrrolo[3,2-c]nicotinamide], the IC50 was determined as 12.4 nM.
Same read-out and setting: the value for `Cc1cc2c(C(N)=O)c(N)n(-c3c(C)cc(Br)c(O)c3C)c2nc1C` [Example 97] was 187 nM; that for `Cc1cc(F)c(O)c(C)c1-n1c(N)c(C(N)=O)c2cc(C(F)(F)F)cnc21` (atropisomer, axis not shown) [Example 154.2] was 5.1 nM; that for `C=C(C)c1nc2c(cc1C)c(C(N)=O)c(N)n2-c1c(C)cc(F)c(O)c1C` [Example 152] was 47.9 nM.
Same read-out and setting: the value for `Cc1ncc2c(C(N)=O)c(N)n(-c3c(C)c(O)cc(F)c3C)c2c1F` (atropisomer, axis not shown) [Example 71.1] was 4.29 nM.
For `Cc1ccc(O)c(C)c1-n1c(N)c(C(N)=O)c2cnc(N3CCCCC3)nc21` [Example 13, 6-Amino-7-(3-hydroxy-2,6-dimethylphenyl)-2-(piperidin-1-yl)-7H-pyrrolo[2,3-d]pyrimidine-5-carboxamide], the 50% inhibitory concentration (IC50) was determined as 12.2 nM.
On the same count and under the same terms, the same measure for `Cc1ccc(O)c(C)c1-n1c(N)c(C(N)=O)c2c(F)nc(C)c(F)c21` [Example 72]: 9.72 nM.

Staying with this test, now noted: read-out: ADP-GLO IC50; PKMYT1 enzyme 10 nM, ATP 5 µM, 37°C 90 minutes.
As for `Cc1ccc(O)c(C)c1-n1c(N)c(C(N)=O)c2cc3c(nc21)CCO3` (atropisomer, axis not shown) [Example 190.2], the IC50 is 2.22 nM.
Consider `COc1nc(C)nc2c1c(C(N)=O)c(N)n2-c1c(C)ccc(O)c1C` [Example 69], for which the concentration for half-maximal inhibition (IC50) came to 15.6 nM.
